Reference: patent publication US7192953B2, “Antibacterial agents” (Vernalis (Oxford) Limited, priority 2002, dated 2007)
Values after ≈ are worked out from the molar mass of the structure shown.

Columns and labels:
Format in all cases: cell-based
S. pneumoniae = test: MIC by agar plate dilution against clinical isolates of S. pneumoniae; conditions: 6 strains of S. pneumoniae (clinical isolates), 18 to 24 hr, 35° C; for MIC: Streptococcus pneumoniae, read-out: MIC or MIC range, S. pneumoniae
Method: (§1) Minimal Inhibitory concentrations (MIC) of inhibitors against clinical isolates of S. pneumoniae, H. influenzae and M. catarrhalis obtained from the Public Health and Clinical Microbiology Laboratory, Addenbrooke's Hospital, Hills Road, Cambridge CB2 2QW, UK, were determined by a standard agar plate dilution method following recommended in British Society for Antimicrobial Chemotherapy Working Party. 1991. “A guide to sensitivity testing British Society for Antimicrobial Chemotherapy, London, United Kingdom”. Briefly Iso-Sensitest agar (pH 7.2: Oxoid, United Kingdom) was employed supplemented with 5% horse blood (Oxoid) and 20 μg of NAD (Sigma) per ml to support growth of fastidious bacteria. The inoculum used was approximately 10^4 colony forming units of each isolate contained in a volume of 1 μl. Plates were incubated 18 to 24 hr in air, or for fastidious bacteria an atmosphere enriched with 4–6% carbon dioxide at 35° C. The MIC was determined as the lowest concentration of an antimicrobial tested that inhibited growth of the inoculum, disregarding a single persisting colony or faint haze caused by the inoculation.
(§2) The compounds of the Examples were are antibacterially active in the above assays, The following table states the MICs or MIC ranges of the tested compounds against 6 strains of S. pneumoniae, 4 strains of H. influenzae and 3 strains of M. catarrhalis.

M. catarrhalis = test: MIC by agar plate dilution against clinical isolates of M. catarrhalis; conditions: 3 strains of M. catarrhalis (clinical isolates), 18 to 24 hr, 35° C; for MIC: Moraxella catarrhalis, read-out: MIC or MIC range, M. catarrhalis
Method: as §1, §2

H. influenzae = test: MIC by agar plate dilution against clinical isolates of H. influenzae; conditions: 4 strains of H. influenzae (clinical isolates), 18 to 24 hr, 35° C; for MIC: Haemophilus influenzae, read-out: MIC or MIC range, H. Influenzae
Method: as §1, §2

| Compound | MIC (S. pneumoniae) [µg/mL] | MIC (M. catarrhalis) [µg/mL] | MIC or MIC range, S. pneumoniae (S. pneumoniae) [µg/mL] | MIC or MIC range, M. catarrhalis (M. catarrhalis) [µg/mL] | MIC or MIC range, H. Influenzae (H. influenzae) [µg/mL] | MIC (H. influenzae) [µg/mL] |
| --- | --- | --- | --- | --- | --- | --- |
| O=CN(O)C[C@@H](CC1CCCC1)C(=O)N1CCCCN1C(=O)c1ccncc1 [Example 5, N-{(2R)-Cyclopentylmethyl-3-[2-(pyridine-4-Carbonyl)-tetrahydropyridazin-1-yl]-3-oxo-propyl}-N-hydroxyformamide] | 2 to 16 (≈ 5.15 to 41.2 µM) | 0.25 (≈ 0.644 µM) | – | – | – | – |
| O=CN(O)C[C@@H](CC1CCCC1)C(=O)N1CCCCN1C(=O)Nc1cc(C(F)(F)F)cc(C(F)(F)F)c1 [Example 13, 2-[(2R)-Cyclopentylmethyl-3-(formylhydroxyamino)-propionyl]-tetrahydropyridazine-1-Carboxylic acid (3,5-bis-(trifluoromethyl)phenyl)amide] | – | – | 8 to 16 | 2 (≈ 3.71 µM) | – | – |
| CN(C(=O)N1CCCN1C(=O)[C@H](CC1CCCC1)CN(O)C=O)c1ccccc1 [Example 43, 2-[(2R)-Cyclopentylmethyl-3-(formylhydroxyamino)-propionyl]-pyrazolidine-1-Carboxylic acid methylphenylamide] | – | – | – | 8 (≈ 19.9 µM) | 16 to 32 | – |
| O=CN(O)C[C@@H](CC1CCCC1)C(=O)N1CCCN1C(=O)Cc1ccccc1 [Example 29, N-{(2R)-Cyclopentylmethyl-3-[2-phenylacetyl-pyrazolidin-1-yl]-3-oxo-propyl}-N-hydroxyformamide] | 4 to 8 (≈ 10.3 to 20.6 µM) | 0.06 (≈ 0.155 µM) | – | – | – | 2 to 16 (≈ 5.16 to 41.3 µM) |
| COc1ccccc1NC(=O)N1CCCN1C(=O)[C@H](CC1CCCC1)CN(O)C=O [Example 38, 2-[(2R)-Cyclopentylmethyl-3-(formylhydroxyamino)-propionyl]-pyrazolidine-1-Carboxylic acid (2-methoxyphenyl)amide] | – | – | 8 to 16 | 0.25 (≈ 0.597 µM) | 1 to 2 | – |
| (2R)-Cyclopentylmethyl-3-[2-(furan-2-Carbonyl)-tetrahydropyridazin-1-yl]-3-oxo-propyl}formamide [Example 1] | – | – | 0.5 to 2 | <0.125 | <0.125 to 0.25 | – |
| COCC(=O)N1CCCN1C(=O)[C@H](CC1CCCC1)CN(O)C=O [Example 26, N-{(2R)-Cyclopentylmethyl-3-[2-(2-methoxyacetyl)-pyrazolidin-1-yl]-3-oxo-propyl}N-hydroxyformamide] | 8 (≈ 23.4 µM) | 0.125 (≈ 0.366 µM) | – | – | – | 1 to 8 (≈ 2.93 to 23.4 µM) |
| O=CN(O)C[C@@H](CC1CCCC1)C(=O)N1CCCN1C(=O)C1CCCCC1 [Example 31, N-{(2R)-Cyclopentylmethyl-3-[2-Cyclohexanecarbonyl-pyrazolidin-1-yl]-3-oxo-propyl}-N-hydroxyformamide] | 8 (≈ 21.1 µM) | 0.06 (≈ 0.158 µM) | – | – | – | 4 to 16 (≈ 10.5 to 42.2 µM) |
| COc1ccccc1NC(=O)N1CCCCN1C(=O)[C@H](CC1CCCC1)CN(O)C=O [Example 20, 2-[(2R)-Cyclopentylmethyl-3-(formylhydroxyamino)-propionyl]-tetrahydropyridazine-1-Carboxylic acid (2-methoxyphenyl)amide] | 4 to 8 (≈ 9.25 to 18.5 µM) | < 0.03 | – | – | – | 0.5 to 2 (≈ 1.16 to 4.62 µM) |
| O=CN(O)C[C@@H](CC1CCCC1)C(=O)N1CCCN1C(=O)c1ccc2c(c1)OCO2 [Example 34, N-{(2R)-Cyclopentylmethyl-3-[2-(benzo[1,3]-dioxole-5-Carbonyl)-pyrazolidin-1-yl]-3-oxo-propyl}N-hydroxyformamide] | 8 to 16 (≈ 19.2 to 38.3 µM) | 0.125 (≈ 0.299 µM) | – | – | – | 4 to 16 (≈ 9.58 to 38.3 µM) |
| O=C(C[C@@H](CC1CCCC1)C(=O)N1CCCCN1C(=O)Nc1ccccc1)NO [Example 45, 2-[(2R)-Cyclopentylmethyl-3-hydroxycarbamoylpropionyl]-tetrahydropyridazine-1-Carboxylic acid phenylamide] | – | – | 4 to 8 | – | 1 to 4 | – |
| O=C(C[C@@H](CC1CCCC1)C(=O)N1CCCCN1C(=O)c1ccco1)NO [Example 44, (3R)-Cyclopentylmethyl-4-[2-(furan-2-Carbonyl)-tetrahydropyridazin-1-yl]-N-hydroxy-4-oxo-butyramide] | – | – | 2 to 4 | 0.6 (≈ 1.59 µM) | 0.06 to 0.125 | – |
| O=CN(O)C[C@@H](CC1CCCC1)C(=O)N1CCCCN1C(=O)c1ccc(N2CCOCC2)nc1 [Example 12, N-{(2R)-Cyclopentylmethyl-3-[2-(6-morpholin-4-yl-pyridine-3-Carbonyl)-tetrahydropyridazin-1-yl]-3-oxo-propyl}N-hydroxyformamide] | 2 to 16 (≈ 4.22 to 33.8 µM) | 1 (≈ 2.11 µM) | – | – | – | 16 to 32 (≈ 33.8 to 67.6 µM) |
| O=CN(O)C[C@@H](CC1CCCC1)C(=O)N1CCCN1C(=O)c1ccc(F)cc1 [Example 35, N-{(2R)-Cyclopentylmethyl-3-[2-(4-fluorobenzoyl)-pyrazolidin-1-yl]-3-oxo-propyl}-N-hydroxyformamide] | 16 (≈ 40.9 µM) | 0.125 (≈ 0.319 µM) | – | – | – | 4 to 8 (≈ 10.2 to 20.4 µM) |
| O=CN(O)C[C@@H](CC1CCCC1)C(=O)N1CCCN1C(=O)c1ccncc1 [Example 30, N-{(2R)-Cyclopentylmethyl-3-[2-(pyridine-4-Carbonyl)-pyrazolidin-1-yl]-3-oxo-propyl}-N-hydroxyformamide] | 16 to 32 (≈ 42.7 to 85.5 µM) | 0.125 (≈ 0.334 µM) | – | – | – | – |
| O=CN(O)C[C@@H](CC1CCCC1)C(=O)N1CCCCN1C(=O)N1CCC(Cc2ccccc2)CC1 [Example 22, N-{(2R)-Cyclopentylmethyl-3-[2-(4-benzylpiperidine-1-Carbonyl)-tetrahydropyridazin-1-yl]-3-oxo-propyl}-N-hydroxyformamide] | 4 to 16 (≈ 8.25 to 33 µM) | 2 (≈ 4.13 µM) | – | – | – | – |

More lines, now with the values ahead:

| MIC (S. pneumoniae) [µg/mL] | MIC (M. catarrhalis) [µg/mL] | MIC or MIC range, S. pneumoniae (S. pneumoniae) [µg/mL] | MIC or MIC range, M. catarrhalis (M. catarrhalis) [µg/mL] | MIC or MIC range, H. Influenzae (H. influenzae) [µg/mL] | MIC (H. influenzae) [µg/mL] | Compound |
| --- | --- | --- | --- | --- | --- | --- |
| 0.5 to 4 (≈ 1.1 to 8.78 µM) | 0.5 (≈ 1.1 µM) | – | – | – | – | O=CN(O)C[C@@H](CC1CCCC1)C(=O)N1CCCCN1C(=O)c1ccc(C(F)(F)F)cc1 [Example 4, N-{(2R)-Cyclopentylmethyl-3-[2-(4-trifluoromethylbenzoyl)-tetrahydropyridazin-1-yl]-3-oxo-propyl}-N-hydroxyformamide] |
| 4 (≈ 8.5 µM) | < 0.125 | – | – | – | 0.25 to 16 (≈ 0.531 to 34 µM) | O=CN(O)C[C@@H](CC1CCCC1)C(=O)N1CCCCN1C(=O)Nc1ccc(C(F)(F)F)cc1 [Example 18, 2-[(2R)-Cyclopentylmethyl-3-(formylhydroxyamino)-propionyl]-tetrahydropyridazine-1-Carboxylic acid (4-trifluoromethylphenyl)amide] |
| 0.5 to 4 (≈ 1.2 to 9.58 µM) | 0.5 (≈ 1.2 µM) | – | – | – | – | COc1ccc(C(=O)N2CCCCN2C(=O)[C@H](CC2CCCC2)CN(O)C=O)cc1 [Example 7, N-{(2R)-Cyclopentylmethyl-3-[2-(4-methoxybenzoyl)-tetrahydropyridazin-1-yl]-3-oxo-propyl}-N-hydroxyformamide] |
| 1 to 8 (≈ 2.18 to 17.4 µM) | 0.25 (≈ 0.544 µM) | – | – | – | 16 (≈ 34.8 µM) | O=CN(O)C[C@@H](CC1CCCC1)C(=O)N1CCCN1C(=O)c1ccc(N2CCOCC2)nc1 [Example 32, N-{(2R)-Cyclopentylmethyl-3-[2-(6-morpholin-4-yl-pyridine-3-Carbonyl)-pyrazolidin-1-yl]-3-oxo-propyl}-N-hydroxyformamide] |
| 2 to 4 (≈ 4.62 to 9.25 µM) | < 0.125 | – | – | – | 0.125 to 4 (≈ 0.289 to 9.25 µM) | COc1cccc(NC(=O)N2CCCCN2C(=O)[C@H](CC2CCCC2)CN(O)C=O)c1 [Example 15, 2-[(2R)-Cyclopentylmethyl-3-(formylhydroxyamino)-propionyl]-tetrahydropyridazine-1-Carboxylic acid (3-methoxyphenyl)amide] |
| 0.5 to 4 (≈ 1.16 to 9.27 µM) | 0.5 (≈ 1.16 µM) | – | – | – | 1 to 8 (≈ 2.32 to 18.5 µM) | O=CN(O)C[C@@H](CC1CCCC1)C(=O)N1CCCCN1C(=O)c1ccc2c(c1)OCO2 [Example 8, N-{(2R)-Cyclopentylmethyl-3-[2-(benzo[1,3]dioxole-5carbonyl)-tetrahydropyridazin-1-yl]-3-oxo-propyl}-N-hydroxyformamide] |
| 0.5 to 4 (≈ 1.25 to 9.96 µM) | 0.25 (≈ 0.623 µM) | – | – | – | 0.25 to 2 (≈ 0.623 to 4.98 µM) | O=CN(O)C[C@@H](CC1CCCC1)C(=O)N1CCCCN1C(=O)Cc1ccccc1 [Example 11, N-{(2R)-Cyclopentylmethyl-3-[2-phenylacetyl-tetrahydropyridazin-1-yl]-3-oxo-propyl}-N-hydroxyformamide] |
| 2 to 8 (≈ 4.38 to 17.5 µM) | – | – | – | – | 2 to 8 (≈ 4.38 to 17.5 µM) | O=CN(O)C[C@@H](CC1CCCC1)C(=O)N1CCCN1C(=O)Nc1ccc(C(F)(F)F)cc1 [Example 42, 2-[(2R)-Cyclopentylmethyl-3-(formylhydroxyamino)-propionyl]-pyrazolidine-1-Carboxylic acid (4-trifluoromethylphenyl)amide] |
| 4 (≈ 11 µM) | 0.06 (≈ 0.165 µM) | – | – | – | – | O=CN(O)C[C@@H](CC1CCCC1)C(=O)N1CCCN1C(=O)c1ccoc1 [Example 37, N-{(2R)-Cyclopentylmethyl-3-[2-(furan-3-Carbonyl)-pyrazolidin-1-yl]-3-oxo-propyl}-N-hydroxyformamide] |
